We go through 1 compound from ChEMBL document CHEMBL3045784, “Effects of oleic acid on the tissue factor activity, blood lipids, antioxidant and oxidant parameters of streptozotocin induced diabetic rats fed a high-cholesterol diet” (Med Chem Res, 2010).

Data set [1] deals with Rattus norvegicus. As to the kind of experiment: Anticoagulant activity in Rattus norvegicus Wistar (rat) diabetic-hyperlipidemic model assessed as decrease in TFa activity in spleen measuring clotting time at 10.91% administered through feeding measured after 12 weeks (reference value: 69.63 +/- 1.77 secs). Format: functional.
For data set [2], the system named is Rattus norvegicus. Description: Increase in blood GSH level in Rattus norvegicus Wistar (rat) diabetic-hyperlipidemic model at 10.91% administered through feeding measured after 12 weeks (reference value: 20.31 +/- 0.93 %mg). The format is functional.
In data set [3] the test system is Rattus norvegicus. As to the kind of experiment: Anticoagulant activity in Rattus norvegicus Wistar (rat) diabetic-hyperlipidemic model assessed as decrease in TFa activity in pancreas measuring clotting time at 10.91% administered through feeding measured after 12 weeks (reference value: 27.25 +/- 2.82 secs). The format is functional.
In data set [4] the test system is Rattus norvegicus. As to the kind of experiment: Anticoagulant activity in Rattus norvegicus Wistar (rat) diabetic-hyperlipidemic model assessed as decrease in TFa activity in kidney measuring clotting time at 10.91% administered through feeding measured after 12 weeks (reference value: 52.38 +/- 2 secs). The format is functional.
The test system of data set [5] is Rattus norvegicus. As to the kind of experiment: Antidiabetic activity in Rattus norvegicus Wistar (rat) diabetic-hyperlipidemic model assessed as serum glucose level at 10.91% administered through feeding measured after 12 weeks ( Rvb = 194.4 +/- 23.99 mg/dl). Format: functional.
The subject of data set [6] is Rattus norvegicus. As to the kind of experiment: Toxicity in Rattus norvegicus Wistar (rat) diabetic-hyperlipidemic model assessed as change in body weight at 10.91% administered through feeding measured for 12 weeks ( Rvb = 290 +/-76 g). Format: organism-based. To be noted: in vivo, po, 2016 h.
The subject of data set [7] is Rattus norvegicus. As to the kind of experiment: Anticoagulant activity in Rattus norvegicus Wistar (rat) diabetic-hyperlipidemic model assessed as activated partial thromboplastin time at 10.91% administered through feeding measured after 12 weeks (reference value: 17.13 +/- 1.73 secs). Format: functional.
The test system of data set [8] is Rattus norvegicus. Description: Anticoagulant activity in Rattus norvegicus Wistar (rat) diabetic-hyperlipidemic model assessed as decrease in TFa activity in brain measuring clotting time at 10.91% administered through feeding measured after 12 weeks (reference value: 50.5 +/- 1.77 secs). Format: functional.
Data set [9] relates to Rattus norvegicus. Description: Anticoagulant activity in Rattus norvegicus Wistar (rat) diabetic-hyperlipidemic model assessed as fibrinogen level at 10.91% administered through feeding measured after 12 weeks (reference value: 2.13 +/- 0.23 g/l). The format is functional.
In data set [10] the test system is Rattus norvegicus. As to the kind of experiment: Antihyperlipidemic activity in Rattus norvegicus Wistar (rat) diabetic-hyperlipidemic model assessed as serum total lipid level at 10.91% administered through feeding measured after 12 weeks ( Rvb = 922.25 +/- 41.78 mg/dl). The format is functional.
Data set [11] relates to Rattus norvegicus. Description: Antihyperlipidemic activity in Rattus norvegicus Wistar (rat) diabetic-hyperlipidemic model assessed as serum HDL-cholesterol level at 10.91% administered through feeding measured after 12 weeks ( Rvb = 22.80 +/- 2.41 mg/dl). The format is functional.
For data set [12], the system named is Rattus norvegicus. Description: Anticoagulant activity in Rattus norvegicus Wistar (rat) diabetic-hyperlipidemic model assessed as decrease in TFa activity in aorta measuring clotting time at 10.91% administered through feeding measured after 12 weeks (reference value: 36.25 +/- 1.39 secs). The format is functional.
Data set [13] relates to Rattus norvegicus. As to the kind of experiment: Antihyperlipidemic activity in Rattus norvegicus Wistar (rat) diabetic-hyperlipidemic model assessed as serum triglyceride level at 10.91% administered through feeding measured after 12 weeks ( Rvb = 86.45 +/- 5.7 mg/dl). The format is functional.
The subject of data set [14] is Rattus norvegicus. As to the kind of experiment: Anticoagulant activity in Rattus norvegicus Wistar (rat) diabetic-hyperlipidemic model assessed as prothombin time at 10.91% administered through feeding measured after 12 weeks (reference value: 14.69 +/- 0.8 secs). Format: functional.
In data set [15] the test system is Rattus norvegicus. As to the kind of experiment: Antihyperlipidemic activity in Rattus norvegicus Wistar (rat) diabetic-hyperlipidemic model assessed as serum total cholesterol level at 10.91% administered through feeding measured after 12 weeks ( Rvb = 309 +/- 35.88 mg/dl). The format is functional.
Data set [16] has as its system Rattus norvegicus. Description: Antioxidant activity in Rattus norvegicus Wistar (rat) diabetic-hyperlipidemic model assessed as serum malondialdehyde level at 10.91% administered through feeding measured after 12 weeks by TBARS assay (reference value: 5.78 +/- 0.08 nmol/ml). The format is functional.
Data set [17] concerns Rattus norvegicus. As to the kind of experiment: Antihyperlipidemic activity in Rattus norvegicus Wistar (rat) diabetic-hyperlipidemic model assessed as serum LDL-cholesterol level at 10.91% administered through feeding measured after 12 weeks ( Rvb = 74.25 +/- 9.36 mg/dl). Format: functional.
The subject of data set [18] is Rattus norvegicus. Description: Anticoagulant activity in Rattus norvegicus Wistar (rat) diabetic-hyperlipidemic model assessed as decrease in TFa activity in liver measuring clotting time at 10.91% administered through feeding measured after 12 weeks (reference value: 74.38 +/- 4.60 secs). The format is functional.
Data set [19] concerns Rattus norvegicus. As to the kind of experiment: Anticoagulant activity in Rattus norvegicus Wistar (rat) diabetic-hyperlipidemic model assessed as decrease in TFa activity in lung measuring clotting time at 10.91% administered through feeding measured after 12 weeks (reference value: 19.25 +/- 3.20 secs). The format is functional.
In data set [20] the test system is Rattus norvegicus. As to the kind of experiment: Anticoagulant activity in Rattus norvegicus Wistar (rat) diabetic-hyperlipidemic model assessed as decrease in TFa activity in heart measuring clotting time at 10.91% administered through feeding measured after 12 weeks (reference value: 27.13 +/- 3.72 secs). Format: functional.

Take `CCCCCCCC/C=C\CCCCCCCC(=O)O` [OLEIC ACID]: the Time amounted to 62.25 s in the data set on Rattus norvegicus [1]; 28.5 s with Rattus norvegicus [3]; 65.13 s in the data set on Rattus norvegicus [4]; 60.13 s in the data set with Rattus norvegicus [8]; 33.5 s in the data set on Rattus norvegicus [12]; 77.25 s in the data set with Rattus norvegicus [18]. The Time came to 20.38 s in the data set on Rattus norvegicus [19] and 28.25 s in the data set with Rattus norvegicus [20]. The Activity came to 29.96 %mg with Rattus norvegicus [2]; 190.63 mg/dL in the data set on Rattus norvegicus [5]; 243 g in the data set on Rattus norvegicus [6]; 1.97 g/L in the data set on Rattus norvegicus [9]; 773.75 mg/dL in the data set with Rattus norvegicus [10]; 25.53 mg/dL with Rattus norvegicus [11]. For the same compound, the Activity in the data set on Rattus norvegicus [13] is 71.68 mg/dL; in the data set with Rattus norvegicus [15], 351.3 mg/dL; in the data set on Rattus norvegicus [16], 5.81 nmol/mL; in the data set with Rattus norvegicus [17], 74.63 mg/dL. Further, the APTT in the data set on Rattus norvegicus [7] is 17.88 s. In the data set on Rattus norvegicus [14], the PT is 15.1 s.
